Patent US20060247323A1, “Stabilisation of light sensitive substances” (priority 2000, published 2006)

System: cockroaches
Experiment: Biological knockdown of cockroaches on glass plates sprayed with diluted d-phenothrin emulsions I, J and neat d-phenothrin
Type: in vivo
Details: 30 mg active pesticide/m^2
Protocol: Samples of the emulsions I and J and neat d-phenothrin are diluted in water and sprayed onto a glass plates to give a concentration of 30 mg active pesticide/m^2. The samples are tested for biological knockdown of cockroaches for 15 minute and 24 hour exposure on the plates and the effectiveness of the pesticide on the treated plates monitored periodically under light and dark conditions. The results of the tests conducted in daylight are shown in Table 3. and those conducted in the dark are shown Table 4.

[1] = daylight, 7 days after application to plates
[2] = daylight, 14 days after application to plates
[3] = daylight, 21 days after application to plates
[4] = daylight, 49 days after application to plates
[5] = daylight, 63 days after application to plates
[6] = daylight, 91 days after application to plates

CC(C)=CC1C(C(=O)OCc2cccc(Oc3ccccc3)c2)C1(C)C (stereo not drawn) [phenothrin, d-phenothrin]
% Kill after 15 minute exposure (dark, 1 day after application to plates): 100% | % Kill after 15 minute exposure (dark, 7 days after application to plates): 100% | % Kill after 15 minute exposure (dark, 14 days after application to plates): 100% | % Kill after 15 minute exposure (dark, 21 days after application to plates): 100% | % Kill after 15 minute exposure (dark, 49 days after application to plates): 100% | % Kill after 15 minute exposure (dark, 63 days after application to plates): 100% | % Kill after 15 minute exposure (dark, 91 days after application to plates): 100% | % Kill after 15 minute exposure (daylight, 1 day after application to plates): 100% | % Kill after 15 minute exposure [1]: 0% | % Kill after 24 hour exposure (in brackets) [1]: 10% | % Kill after 15 minute exposure [2]: 0 (0) % | % Kill after 24 hour exposure (in brackets) [2]: 0 (0) % | % Kill after 15 minute exposure [3]: 10% | % Kill after 24 hour exposure (in brackets) [3]: 0% | % Kill after 15 minute exposure [4]: 10 (10) % | % Kill after 24 hour exposure (in brackets) [4]: 10 (10) % | % Kill after 15 minute exposure [5]: 10% | % Kill after 24 hour exposure (in brackets) [5]: 40% | % Kill after 15 minute exposure [6]: 0 (0) % | % Kill after 24 hour exposure (in brackets) [6]: 0 (0) %
